Columns and labels:
Duox1 = Duox1 (Homo sapiens, UniProt Q9NRD9); experiment: H2O2 synthesis assay in homogenates of HEK293T cells expressing Duox1/DuoxA1α; format: biochemical
Duox2 = Duox2 (Homo sapiens, UniProt Q9NRD8); experiment: H2O2 synthesis assay in homogenates of HEK293T cells expressing Duox2/DuoxA2; format: biochemical
Duox2, sequence (Q9NRD8 26-1548): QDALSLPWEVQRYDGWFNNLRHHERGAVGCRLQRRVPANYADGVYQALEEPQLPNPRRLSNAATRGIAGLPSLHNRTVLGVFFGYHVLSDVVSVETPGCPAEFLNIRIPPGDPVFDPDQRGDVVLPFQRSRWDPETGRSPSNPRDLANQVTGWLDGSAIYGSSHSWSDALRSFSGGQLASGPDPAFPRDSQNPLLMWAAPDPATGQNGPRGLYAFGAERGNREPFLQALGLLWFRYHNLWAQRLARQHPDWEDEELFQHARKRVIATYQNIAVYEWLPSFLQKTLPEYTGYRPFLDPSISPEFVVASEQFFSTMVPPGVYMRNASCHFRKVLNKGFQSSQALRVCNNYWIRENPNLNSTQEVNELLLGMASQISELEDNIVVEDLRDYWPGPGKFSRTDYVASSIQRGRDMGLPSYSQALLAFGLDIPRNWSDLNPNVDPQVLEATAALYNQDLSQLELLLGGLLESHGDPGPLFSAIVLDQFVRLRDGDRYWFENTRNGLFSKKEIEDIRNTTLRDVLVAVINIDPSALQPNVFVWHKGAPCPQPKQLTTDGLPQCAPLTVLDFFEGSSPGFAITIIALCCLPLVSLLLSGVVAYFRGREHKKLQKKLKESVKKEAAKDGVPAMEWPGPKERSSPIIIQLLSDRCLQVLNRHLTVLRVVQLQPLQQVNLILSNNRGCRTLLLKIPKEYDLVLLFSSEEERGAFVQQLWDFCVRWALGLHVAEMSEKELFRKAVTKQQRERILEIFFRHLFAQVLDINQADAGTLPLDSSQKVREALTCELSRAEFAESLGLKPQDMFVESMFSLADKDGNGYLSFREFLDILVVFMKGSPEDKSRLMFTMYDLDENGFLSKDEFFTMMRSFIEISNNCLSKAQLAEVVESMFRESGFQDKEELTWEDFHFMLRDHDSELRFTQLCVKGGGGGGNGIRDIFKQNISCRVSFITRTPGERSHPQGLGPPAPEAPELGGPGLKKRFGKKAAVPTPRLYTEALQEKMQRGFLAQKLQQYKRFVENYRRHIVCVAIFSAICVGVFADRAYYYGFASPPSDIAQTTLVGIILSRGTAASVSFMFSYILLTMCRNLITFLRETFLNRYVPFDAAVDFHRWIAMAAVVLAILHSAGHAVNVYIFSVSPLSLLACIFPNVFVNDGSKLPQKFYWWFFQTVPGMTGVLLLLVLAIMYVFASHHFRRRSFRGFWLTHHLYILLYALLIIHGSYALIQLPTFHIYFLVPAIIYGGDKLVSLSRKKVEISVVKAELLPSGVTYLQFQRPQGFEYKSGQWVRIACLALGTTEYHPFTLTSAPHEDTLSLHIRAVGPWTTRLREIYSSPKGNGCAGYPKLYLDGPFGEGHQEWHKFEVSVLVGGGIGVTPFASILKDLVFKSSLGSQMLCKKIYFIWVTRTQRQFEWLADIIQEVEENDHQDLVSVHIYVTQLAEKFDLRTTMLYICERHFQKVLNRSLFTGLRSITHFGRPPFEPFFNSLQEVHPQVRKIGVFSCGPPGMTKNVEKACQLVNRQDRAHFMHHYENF
Duox2, sequence (Q1HG44 whole entry partner): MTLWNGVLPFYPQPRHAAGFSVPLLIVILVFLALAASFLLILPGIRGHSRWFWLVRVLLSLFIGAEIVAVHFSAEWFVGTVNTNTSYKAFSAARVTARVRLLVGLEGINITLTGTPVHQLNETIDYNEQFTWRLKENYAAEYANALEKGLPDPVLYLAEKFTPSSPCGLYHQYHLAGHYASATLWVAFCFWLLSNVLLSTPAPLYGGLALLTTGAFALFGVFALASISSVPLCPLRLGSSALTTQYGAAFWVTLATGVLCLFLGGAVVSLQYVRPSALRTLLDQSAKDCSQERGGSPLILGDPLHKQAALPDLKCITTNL

Duox1, sequence (Q9NRD9 22-1551): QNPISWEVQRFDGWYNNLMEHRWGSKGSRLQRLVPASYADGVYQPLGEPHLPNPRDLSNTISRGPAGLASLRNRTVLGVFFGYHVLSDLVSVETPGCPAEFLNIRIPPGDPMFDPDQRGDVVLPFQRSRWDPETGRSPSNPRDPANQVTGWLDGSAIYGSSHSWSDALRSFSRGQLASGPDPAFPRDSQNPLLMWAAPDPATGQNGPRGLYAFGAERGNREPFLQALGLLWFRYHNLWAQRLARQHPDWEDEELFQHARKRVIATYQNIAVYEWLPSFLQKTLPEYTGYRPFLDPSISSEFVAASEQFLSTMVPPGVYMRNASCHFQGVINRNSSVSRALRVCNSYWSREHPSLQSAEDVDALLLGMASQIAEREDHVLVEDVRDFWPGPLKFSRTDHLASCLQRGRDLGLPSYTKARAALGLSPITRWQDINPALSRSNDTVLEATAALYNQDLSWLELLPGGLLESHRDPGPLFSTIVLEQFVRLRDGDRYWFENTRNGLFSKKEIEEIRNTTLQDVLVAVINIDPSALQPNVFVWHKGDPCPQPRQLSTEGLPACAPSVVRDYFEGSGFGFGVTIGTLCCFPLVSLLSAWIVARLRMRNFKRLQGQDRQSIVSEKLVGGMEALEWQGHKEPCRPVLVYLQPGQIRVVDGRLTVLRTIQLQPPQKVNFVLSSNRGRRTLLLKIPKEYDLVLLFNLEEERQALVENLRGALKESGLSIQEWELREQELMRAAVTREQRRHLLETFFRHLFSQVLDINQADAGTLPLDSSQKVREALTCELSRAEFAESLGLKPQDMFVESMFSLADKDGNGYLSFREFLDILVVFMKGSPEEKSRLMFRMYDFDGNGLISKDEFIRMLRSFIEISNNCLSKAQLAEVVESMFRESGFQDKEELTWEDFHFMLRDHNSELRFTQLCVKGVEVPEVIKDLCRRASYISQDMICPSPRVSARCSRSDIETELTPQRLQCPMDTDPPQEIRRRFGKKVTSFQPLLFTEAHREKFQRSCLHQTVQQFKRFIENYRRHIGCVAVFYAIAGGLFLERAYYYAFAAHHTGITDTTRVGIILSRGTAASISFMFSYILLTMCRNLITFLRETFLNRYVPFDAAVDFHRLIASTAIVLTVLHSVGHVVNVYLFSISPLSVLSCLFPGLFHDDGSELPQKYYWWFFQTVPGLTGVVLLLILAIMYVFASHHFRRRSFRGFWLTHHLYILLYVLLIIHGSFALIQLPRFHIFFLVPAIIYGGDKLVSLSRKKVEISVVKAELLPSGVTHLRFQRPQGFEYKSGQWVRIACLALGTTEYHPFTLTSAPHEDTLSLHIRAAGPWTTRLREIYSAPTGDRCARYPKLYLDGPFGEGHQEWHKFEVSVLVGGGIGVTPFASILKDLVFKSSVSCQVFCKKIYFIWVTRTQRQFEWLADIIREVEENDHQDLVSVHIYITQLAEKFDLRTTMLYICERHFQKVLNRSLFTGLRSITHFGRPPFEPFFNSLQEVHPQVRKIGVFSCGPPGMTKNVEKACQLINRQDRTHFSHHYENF
Duox1, sequence (Q1HG43 whole entry partner): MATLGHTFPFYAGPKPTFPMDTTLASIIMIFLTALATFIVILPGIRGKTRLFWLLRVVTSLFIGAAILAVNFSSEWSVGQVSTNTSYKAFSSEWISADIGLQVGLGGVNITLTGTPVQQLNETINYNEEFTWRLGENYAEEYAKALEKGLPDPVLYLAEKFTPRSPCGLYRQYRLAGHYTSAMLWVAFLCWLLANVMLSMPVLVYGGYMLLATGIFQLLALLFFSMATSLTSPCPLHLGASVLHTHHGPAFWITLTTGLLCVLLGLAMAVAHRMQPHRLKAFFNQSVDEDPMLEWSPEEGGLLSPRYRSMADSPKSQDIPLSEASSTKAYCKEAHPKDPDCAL

N=C(N)Nc1nc2ccc(Cl)cc2[nH]1 [ClGBI, 5-chloro-2-guanidinobenzimidazole]
IC50 (Duox1): 140 µM | IC50 (Duox2): 110 µM
